The assay concerns the target wild-type human cardiac sodium channel, hNav1.5 (Homo sapiens, UniProt Q14524). Nature of the assay: Late INa screening assay (automated whole cell patch clamp, PatchXpress). The conditions noted are these: compound at 1 μM; HEK293 cells expressing hNav1.5; late INa generated with 10 μM Tefluthrin (or 50 nM ATX II); read-out: LateINa_1 uM (percent block of late INa). Type of assay: cell-based. In outline: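 Late sodium current through wild-type human hNav1.5 stably expressed in HEK293 cells (no beta subunits) was recorded by automated whole-cell patch clamp on a PatchXpress 7000A at 24-27° C. Late INa was induced with 10 μM Tefluthrin or 50 nM ATX II. Cells were stepped from −120 mV to −20 mV for 250 ms at 0.1 Hz, and percent block was normalized to current in Na-free extracellular solution.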
(In general: Patch clamp records ionic current or voltage across a cell membrane.)
wild-type human cardiac sodium channel, hNav1.5, sequence (Q14524 whole entry): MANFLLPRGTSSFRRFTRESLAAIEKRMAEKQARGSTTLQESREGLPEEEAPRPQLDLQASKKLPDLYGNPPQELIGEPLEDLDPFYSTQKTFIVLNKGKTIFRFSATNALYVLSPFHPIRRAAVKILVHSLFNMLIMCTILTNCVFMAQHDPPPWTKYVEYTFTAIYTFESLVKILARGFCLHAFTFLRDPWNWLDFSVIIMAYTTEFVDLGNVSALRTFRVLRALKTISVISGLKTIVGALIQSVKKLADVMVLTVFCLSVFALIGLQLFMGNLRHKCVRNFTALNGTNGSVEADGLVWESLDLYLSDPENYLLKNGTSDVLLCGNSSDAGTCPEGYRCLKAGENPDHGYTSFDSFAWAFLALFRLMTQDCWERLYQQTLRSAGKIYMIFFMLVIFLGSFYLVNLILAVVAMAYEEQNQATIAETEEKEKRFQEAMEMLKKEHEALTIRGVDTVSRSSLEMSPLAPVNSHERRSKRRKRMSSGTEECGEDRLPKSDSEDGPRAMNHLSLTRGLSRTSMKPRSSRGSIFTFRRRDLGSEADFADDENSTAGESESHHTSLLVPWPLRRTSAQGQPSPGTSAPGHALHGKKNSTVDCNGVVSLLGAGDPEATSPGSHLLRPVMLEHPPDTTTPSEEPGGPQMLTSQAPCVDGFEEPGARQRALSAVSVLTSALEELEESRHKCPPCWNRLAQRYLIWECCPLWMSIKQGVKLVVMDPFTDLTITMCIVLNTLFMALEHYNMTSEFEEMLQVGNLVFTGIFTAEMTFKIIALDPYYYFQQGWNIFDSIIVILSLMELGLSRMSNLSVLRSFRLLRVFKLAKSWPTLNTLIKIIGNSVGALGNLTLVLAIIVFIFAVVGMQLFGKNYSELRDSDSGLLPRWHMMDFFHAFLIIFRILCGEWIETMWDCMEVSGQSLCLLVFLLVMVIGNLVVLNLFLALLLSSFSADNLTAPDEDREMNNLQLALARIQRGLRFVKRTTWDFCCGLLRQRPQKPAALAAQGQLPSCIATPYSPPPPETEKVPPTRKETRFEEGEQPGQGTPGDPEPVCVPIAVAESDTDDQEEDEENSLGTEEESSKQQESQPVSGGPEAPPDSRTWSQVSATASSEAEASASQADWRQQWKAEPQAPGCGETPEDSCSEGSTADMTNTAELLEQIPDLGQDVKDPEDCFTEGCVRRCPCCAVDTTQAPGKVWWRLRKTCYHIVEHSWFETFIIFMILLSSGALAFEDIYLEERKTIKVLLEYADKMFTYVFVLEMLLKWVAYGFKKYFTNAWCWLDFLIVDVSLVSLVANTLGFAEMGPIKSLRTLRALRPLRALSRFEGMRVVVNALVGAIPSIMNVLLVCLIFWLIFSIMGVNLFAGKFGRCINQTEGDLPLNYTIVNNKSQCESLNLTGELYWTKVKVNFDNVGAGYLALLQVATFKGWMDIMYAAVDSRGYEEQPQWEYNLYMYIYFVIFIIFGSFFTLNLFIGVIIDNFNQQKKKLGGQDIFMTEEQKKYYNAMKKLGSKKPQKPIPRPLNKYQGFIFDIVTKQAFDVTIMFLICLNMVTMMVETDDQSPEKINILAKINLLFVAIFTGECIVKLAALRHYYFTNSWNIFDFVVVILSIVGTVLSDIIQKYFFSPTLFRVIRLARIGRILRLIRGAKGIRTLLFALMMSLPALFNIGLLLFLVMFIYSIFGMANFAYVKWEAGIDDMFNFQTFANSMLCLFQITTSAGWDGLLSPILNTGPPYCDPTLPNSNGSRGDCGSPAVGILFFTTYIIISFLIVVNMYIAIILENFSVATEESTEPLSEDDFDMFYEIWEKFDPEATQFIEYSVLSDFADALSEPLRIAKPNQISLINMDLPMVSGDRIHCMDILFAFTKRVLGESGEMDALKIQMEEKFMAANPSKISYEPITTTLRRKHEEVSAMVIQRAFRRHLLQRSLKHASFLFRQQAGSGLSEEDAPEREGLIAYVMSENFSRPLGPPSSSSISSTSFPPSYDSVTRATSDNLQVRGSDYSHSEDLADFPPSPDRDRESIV
Turning to `FC(F)(F)Oc1ccc(-c2ccc3nnc(C(F)(F)OCC4CC4(F)F)n3c2)cc1` (centres unmarked) [BHN-294, 3-{[(2,2-difluorocyclopropyl)methoxy](difluoro)methyl}-6-[4-(trifluoromethoxy)phenyl][1,2,4]triazolo[4,3-a]pyridine], the inhibition at 1 µM was found to be 77.6%. In the case of `FC(F)(F)Oc1ccc(-c2ccc3nnc(C(F)(F)OCC#Cc4ccccc4)n3c2)cc1` [BHN-295, 3-{difluoro[(3-phenylprop-2-yn-1-yl)oxy]methyl}-6-[4-(trifluoromethoxy)phenyl][1,2,4]triazolo[4,3-a]pyridine], the inhibition at 1 µM came out at 87.7%.

Regarding `Cn1c(COC(F)(F)c2nnc3ccc(-c4ccc(OC(F)(F)F)cc4)cn23)nc2ccccc21` [BHN-296, 3-{difluoro[(1-methyl-1H-benzimidazol-2-yl)methoxy]methyl}-6-[4-(trifluoromethoxy)phenyl][1,2,4]triazolo[4,3-a]pyridine], the inhibition at 1 µM was 40.1%. As to `FC(F)(F)Oc1ccc(-c2ccc3nnc(C(F)(F)OCc4cn(Cc5ccccc5)nn4)n3c2)cc1` [BHN-297, 3-{[(1-benzyl-1H-1,2,3-triazol-4-yl)methoxy](difluoro)methyl}-6-[4-(trifluoromethoxy)phenyl][1,2,4]triazolo[4,3-a]pyridine], the inhibition at 1 µM worked out at 63.4%.

For the compound `FC(F)(F)Oc1ccc(-c2ccc3nnc(C(F)(F)OCc4cc(-c5ccccc5)on4)n3c2)cc1` [BHN-298, 3-{difluoro[(5-phenyl-1,2-oxazol-3-yl)methoxy]methyl}-6-[4-(trifluoromethoxy)phenyl][1,2,4]triazolo[4,3-a]pyridine], the inhibition at 1 µM was determined as 70.3%. The same measure for `FC(F)(F)Oc1ccc(-c2ccc3nnc(C(F)(F)OCc4coc(-c5ccccc5)n4)n3c2)cc1` [BHN-299, 3-{difluoro[(2-phenyl-1,3-oxazol-4-yl)methoxy]methyl}-6-[4-(trifluoromethoxy)phenyl][1,2,4]triazolo[4,3-a]pyridine]: 51.1%. For `Cc1nn(-c2ccccc2)nc1COC(F)(F)c1nnc2ccc(-c3ccc(OC(F)(F)F)cc3)cn12` [BHN-300, 3-{difluoro[(5-methyl-2-phenyl-2H-1,2,3-triazol-4-yl)methoxy]methyl}-6-[4-(trifluoromethoxy)phenyl][1,2,4]triazolo[4,3-a]pyridine], the inhibition at 1 µM was found to be 63%. Under `Cn1ccc(COC(F)(F)c2nnc3ccc(-c4ccc(OC(F)(F)F)cc4)cn23)n1` [BHN-301, 3-{difluoro[(1-methyl-1H-pyrazol-3-yl)methoxy]methyl}-6-[4-(trifluoromethoxy)phenyl][1,2,4]triazolo[4,3-a]pyridine] stands 29.9%; under `Cc1cc(COC(F)(F)c2nnc3ccc(-c4ccc(OC(F)(F)F)cc4)cn23)nn1-c1ccc(Cl)cc1` [BHN-302, 3-[{[1-(4-chlorophenyl)-5-methyl-1H-pyrazol-3-yl]methoxy}(difluoro)methyl]-6-[4-(trifluoromethoxy)phenyl][1,2,4]triazolo[4,3-a]pyridine], 52.8%. On to `FC(F)(F)Oc1ccc(-c2ccc3nnc(C(F)(F)OCCC(c4ccccc4)c4ccccc4)n3c2)cc1` [BHN-303, 3-[(3,3-diphenylpropoxy)(difluoro)methyl]-6-[4-(trifluoromethoxy)phenyl][1,2,4]triazolo[4,3-a]pyridine], for which the inhibition at 1 µM is 51%.

For `FC(F)(F)c1ccc(C#Cc2ccc3nnc(Oc4ccccc4)n3c2)cc1` [BHN-304, 3-phenoxy-6-{[4-(trifluoromethyl)phenyl]ethynyl}[1,2,4]triazolo[4,3-a]pyridine], the inhibition at 1 µM worked out at 28.2%.

`FC(F)(F)Oc1ccc(-c2ccc3nnc(C(F)(F)OCc4cccc(-c5ncccn5)c4)n3c2)cc1` [BHN-305, 3-(difluoro{[3-(pyrimidin-2-yl)benzyl]oxy}methyl)-6-[4-(trifluoromethoxy)phenyl][1,2,4]triazolo[4,3-a]pyridine]: the inhibition at 1 µM was determined as 59.6%.

Consider `FC(F)(F)Oc1ccc(-c2ccc3nnc(C(F)(F)OCc4cccc(-c5cccnc5)c4)n3c2)cc1` [BHN-306, 3-(difluoro{[3-(pyridin-3-yl)benzyl]oxy}methyl)-6-[4-(trifluoromethoxy)phenyl][1,2,4]triazolo[4,3-a]pyridine], for which the inhibition at 1 µM is 49.7%.

For `Cn1nc(COC(F)(F)c2nnc3ccc(-c4ccc(OC(F)(F)F)cc4)cn23)c2ccccc21` [BHN-307, 3-{difluoro[(1-methyl-1H-indazol-3-yl)methoxy]methyl}-6-[4-(trifluoromethoxy)phenyl][1,2,4]triazolo[4,3-a]pyridine], the inhibition at 1 µM came to 68.5%. Under `FC(F)(F)Oc1ccc(-c2ccc3nnc(C(F)(F)Cl)n3c2)cc1` [BHN-308, 3-[chloro(difluoro)methyl]-6-[4-(trifluoromethoxy)phenyl][1,2,4]triazolo[4,3-a]pyridine] stands 71.2%; under `COCC(F)(F)c1nnc2ccc(C#Cc3ccc(OC(F)(F)F)cc3)cn12` [BHN-309, 3-(1,1-difluoro-2-methoxyethyl)-6-{[4-(trifluoromethoxy)phenyl]ethynyl}[1,2,4]triazolo[4,3-a]pyridine], 25.2%. The same measure for `COCC(F)(F)c1nnc2ccc(C#Cc3ccc(F)cc3)cn12` [BHN-310, 3-(1,1-difluoro-2-methoxyethyl)-6-[(4-fluorophenyl)ethynyl][1,2,4]triazolo[4,3-a]pyridine]: 21.7%. Consider `FC(F)(F)Oc1ccc(-c2ccc3nnc(C(F)(F)OCc4ccccc4-n4cncn4)n3c2)cc1` [BHN-311, 3-(difluoro{[2-(1H-1,2,4-triazol-1-yl)benzyl]oxy}methyl)-6-[4-(trifluoromethoxy)phenyl][1,2,4]triazolo[4,3-a]pyridine], for which the inhibition at 1 µM is 47.3%. Under `Cc1nccn1-c1ccccc1COC(F)(F)c1nnc2ccc(-c3ccc(OC(F)(F)F)cc3)cn12` [BHN-312, 3-(difluoro{[2-(2-methyl-1H-imidazol-1-yl)benzyl]oxy}methyl)-6-[4-(trifluoromethoxy)phenyl][1,2,4]triazolo[4,3-a]pyridine] stands 51.4%.

As for `FC(F)(F)Oc1ccc(-c2ccc3nnc(C(F)(F)OCc4nc(-c5ccccc5)oc4C(F)(F)F)n3c2)cc1` [BHN-313, 3-(difluoro{[2-phenyl-5-(trifluoromethyl)-1,3-oxazol-4-yl]methoxy}methyl)-6-[4-(trifluoromethoxy)phenyl][1,2,4]triazolo[4,3-a]pyridine], the inhibition at 1 µM worked out at 50%.

In the case of `FC(F)(F)Oc1ccc(-c2ccc3nnc(C(F)(F)OCc4cn(-c5ccccc5)nc4C(F)(F)F)n3c2)cc1` [BHN-314, 3-(difluoro{[1-phenyl-3-(trifluoromethyl)-1H-pyrazol-4-yl]methoxy}methyl)-6-[4-(trifluoromethoxy)phenyl][1,2,4]triazolo[4,3-a]pyridine], the inhibition at 1 µM came out at 24.2%. Consider `FC(F)(F)Oc1ccc(-c2ccc3nnc(C(F)(F)OCc4ccc(-n5cccn5)nc4)n3c2)cc1` [BHN-315, 3-(difluoro{[6-(1H-pyrazol-1-yl)pyridin-3-yl]methoxy}methyl)-6-[4-(trifluoromethoxy)phenyl][1,2,4]triazolo[4,3-a]pyridine], for which the inhibition at 1 µM was 55.9%. Consider `FC(F)(F)Oc1ccc(-c2ccc3nnc(C(F)(F)OCc4cc(-c5ccc(C6CC6)nc5)ccn4)n3c2)cc1` [BHN-316, 6-cyclopropyl-2′-[(difluoro{6-[4-(trifluoromethoxy)phenyl][1,2,4]triazolo[4,3-a]pyridin-3-yl}methoxy)methyl]-3,4′-bipyridine], for which the inhibition at 1 µM was determined as 59%.
